Here are results for nine molecules from patent publication US6552066B1, “Protein tyrosine kinase inhibitors for treating osteoarthritis” (priority 1995, dated 2003).

In one data set the test system is bovine cartilage explant. The note with it: cited from earlier work.
Data set [1] concerns IL-1 induced release of 35S-labelled proteoglycans from chondrocytes. Briefly: Chondrocyte cell culture matrix breakdown assay (IL-1 induced 35S release). It is filed as cell-based, calf (bovine). The note with it: for inhibitory effect on IL-1 induced release of 35S-labelled proteoglycans: first experiment; for percent inhibition of IL-1 induced 35S release: repeated assay. As to the method: A cell culture assay was used to measure the ability of the test compounds to slow the degradation of the extracellular matrix by a metalloproteinase. This assay measured the amount ^35S released from chondrocytes grown in a media with ^35S labeled sodium sulfate. The cell culture assay was carried out as follows:
Two or three 1 to 3 week old calf joints were obtained from an abattoir. The proximal end of the shank was about 4-5′ long to facilitate immobilization in the holder. The joint was kept cool and transported on ice. The exterior of the intact joints was washed well with a suitable anti-microbial soap, rinsed clean with warm water, rinsed in betadine and then finally rinsed with 70% ethanol. Up to this point all steps were done in a manner to ensure that the joint was kept as clean as possible. All subsequent steps were performed in a sterile field (i.e., in a Edgeguard laminar flow tissue culture hood). The joint was immobilized and the synovial fluid was aspirated with a needle and syringe. The joint was then cut open to expose the articular cartilage using a #21 scalpel. Using locking hemostats, forceps and a #15 scalpel, the cartilage was excised in full thickness pieces. Care was taken not to cut too deep into the subchondral bone to prevent bleeding. The cartilage pieces were placed into a 50 mL centrifuge tube containing 25 mL of Delbecco's phosphate buffered saline (D-PBS) supplemented with 1% antibiotic solution (penicillin, streptomycin and fungizone; GIBCO/BRL). The slices from each joint were then placed into separate 50 mL centrifuge tubes. The D-PBS was decanted and replaced with 25 mL of fresh D-PBS supplemented with antibiotics and subsequently agitated gently.
The cartilage pieces were transferred to a fresh 50 mL centrifuge tube and rinsed once more with 25 mL of D-PBS minus antibiotics. An enzymatic digestion solution containing 1 mg/mL of hyaluronidase in serum-free 1:1 DMEM/Ham's F-12 (DMEM/F12) was prepared. This solution was filter sterilized with 0.22 mm Milex-GV filter and kept on ice until ready to use. The cartilage pieces were digested with approximately 5 mL of hyaluronidase solution per joint for 2×15 minutes at 37° C. in the 50 mL centrifuge tube with gentle agitation at the 15 minute mark. This procedure removed residual hyaluronic acid from the surface of the chips. The enzymatic digestion solution was then aspirated and the cartilage pieces were rinsed with 25 mL of D-PBS.
A second enzymatic digestion solution containing 2.5 mg trypsin and 2 mg collagenase P per mL serum-free DMEM/F12 was prepared. This solution was also filter sterilized with a 0.22 mm Millex-GV filter and kept on ice until ready to use. The cartilage pieces were digested with approximately 5 mL of trypsin: collagenase solution per joint for 2×15 minutes at 37° C. in the 50 mL centrifuge tube with gentle agitation at the 15 minute mark. This procedure removed the synovial fibroblasts and any adherent connective tissue from the surface of the chips. The enzymatic digestion solution was then carefully removed and saved and the cartilage pieces were rinsed with 25 mL of D-PBS.
A third enzymatic solution containing 2 mgs of collagenase P (BMB) per mL serum-free DMEM/F12 was prepared. This solution was filter sterilized with a 0.22 mm Millex-GV filter and kept on ice until ready to use. The pre-digested cartilage pieces were finally digested with approximately 20 mL of enzymatic digestion solution per joint for 5-6 hours at 37° C. in a Bellco stirring digestion flask, at which point the cartilage was fully digested away.
The enzymes in the synovial fibroblast and chondrocyte digest were neutralized by addition of an equal volume of DMEM/F12 supplemented with 5% fetal bovine serum. Fibroblasts were plated in DMEM at a cellular density of 6.6×10^3 cells per cm^2. […]

In a further data set the test system is prostromelysin protein. Put plainly: Western immunoblot of IL-1-induced prostromelysin protein in primary bovine chondrocytes. It is filed as cell-based. The conditions noted are these: for effect on IL-1-induced prostromelysin levels: first experiment; for effect on IL-1α-induced prostromelysin protein levels: repeat experiment. How it is done: Isolation and culturing of primary bovine articular chondrocytes, as well as addition of inhibitors were performed as indicated above in Example 4. The following protein kinase inhibitors were tested: 1) Protein kinase A (PKA) inhibitors; 0.5 μM H88 (Seikagaku Corp.), 0.5 μM H89 (Seikagaku Corp.), 2) Protein kinase C (PKC) inhibitors; 0.5 μM Calphostin C (Calbiochem), 1.0 μM Chelerythrine (Calbiochem); 3) CA^2+/Calmodulin Kinase II inhibitor; 5.0 μM KN93 (Seikagaku Corp.); 4) Protein tyrosine kinase (PTK) inhibitors; 50 μM Genistein (Calbiochem), 10 μM Herbimycin A (Calbiochem).
After the 24 hour IL-1α incubation, the media of each sample was measured and collected on ice in the presence of the protease inhibitors EGTA (5 mM), Pefabloc (1 mM), pepstatin (1 μg/ml), and NEM (5 mM). Media were concentrated approximately 40 fold using a Centriprep-10 ultrafiltration device (Amicon). Concentrated samples were normalized to equivalent starting concentrations (cell number/culture volume), were reduced in the presence of SDS Laemmli sample buffer and electrophoresed in a precast 12% polyacrylamide gel (BioRad). Protein samples were then electroblotted to nitrocellulose and immunodetected using a primary antibody that recognizes both prostromelysin and stromelysin. Immunoreactive bands were visualized with the ABC detection (Pierce) and an NBT/BCIP color reagent (Sigma).
A repeat of the Western immunoblotting experiment using antistromelysin antibodies was performed. Furthermore, additional inhibitors from four enzyme families were examined: 1) Protein tyrosine kinase (PTK) inhibitors: 1 μM Tyrphostin AG 1296 (Calbiochem), 50 μM Tyrphostin A25 (AG 82) (Calbiochem), 50 μM Tyrphostin AG 126 (Calbiochem); 2) Guanylate cyclase inhibitor; 10 μM LY-83583 (Calbiochem); 3) Casein kinase I inhibitor; 20 μM CKI-7 (Seikagaku Corp.); and 4) Protein kinase G (PKG) and PKA inhibitor; 5.0 μM H89.

In data set [2] the test system is IL-1-induced aggrecan degradation. Briefly: Aggrecan degradation in IL-1-stimulated chondrocytes, 2-B-6 antibody immunoblot. The data set is classed as cell-based, bovine. How it is done:
(§1) Primary bovine articular chondrocytes from calf adio-carpal joints were isolated and cultured as above in Example 1, up to and including the addition of the following protein kinase inhibitors: 1) Protein kinase A (PKA) inhibitors; 0.5 μM H88 (Seikagaku Corp.), 0.5 μM H89 (Seikagaku Corp.); 2) Protein kinase C (PKC) inhibitors; 0.5 μM Calphostin C (Calbiochem), 1.0 μM Chelerythrine (Calbiochem); 3) CA^2+/Calmodulin Kinase II inhibitor; 5.0 μM KN93 (Seikagaku Corp.); 4) Protein tyrosine kinase (PTK) inhibitors; 50 μM Genistein (Calbiochem), 10 μM Herbimycin A (Calbiochem). After the 24 hour IL-1α incubation, the media of each sample was measured, and collected on ice in the presence of the protease inhibitors EGTA (5 mM), Pefaloc (1 mM), pepstatin (1 μg/ml), and NEM (5 mM). Media were concentrated approximately 40 fold using a Centriprep-10 ultrafiltration device (Amicon).
(§2) Proteoglycans contained within the media were deglycosylated by incubations with chondroitinase ABC, keratinase, and keratinase II following the procedure of Sandy et al. J Biol Chem (1991) 266:8683-8685 and Sandy et al. J. Clin Invest (1992) 89:1512-1516. Samples of deglycosylated media were subjected to 4-15% gradient SDS-PAGE and transferred to nitrocellulose membranes (2 ml-worth and 6 ml-worth of media were used for 2-B-6 and BC-3 immunoblotting, respectively.) The membranes were blocked with 1% nonfat dry milk and 1% BSA, and then incubated in either the BC-3 or 2-B-6 primary monoclonal antibody for 1 hour. The 2-B-6 antibody detects chondroitin sulfate stubs on chondroitinase-treated proteoglycans (both intact and degradation products. BC-3 antibody detects “ARGSV . . . ,” the new N-terminus (“neoepitope”) resulting from cleavage of aggrecan interglobular domain at Glu^373/ALA^374 by aggrecanase. It is of note to mention that the BC-3 and 2-B-6 antibodies were of low sensitivity. Following 3 washes, membranes were incubated in either alkaline phosphatase-conjugated goat anti-mouse (for the 2-B-6 blot) or biotinylated goat anti-mouse (for the BC-3 blot); followed by alkaline phosphatase-conjugated streptavidin/biotin complex). After washing 3 times, immunoreactive proteins were detected using NBT/BCIP (Sigma) colorimetric substrate.
The 2-B-6 antibody detected intact aggrecan (the uppermost band) and several aggrecan degradation products, along with decorin and biglycan (50K doublet), in the IL-1-treated media samples. […] The bands in the IL-1 sample that are seen at 230K, 200K, 130K and 100K have been previously identified by sequence analysis to result from IL-1-induced “aggrecanase” cleavage.
A repeat of the Western immunoblotting experiment using 2-B-6 antibodies was performed. Furthermore, additional inhibitors from four enzyme families were examined: 1) Protein tyrosine kinase (PTK) inhibitors; 1 μM Tryphostin AG 1296 (Calbiochem), 50 μM Tyrphostin A25 (AG 82) (Calbiochem), 50 μM Tyrphostin AG 126 (Calbiochem), 50 μM Tyrphostin B56 (AG 556) (Calbiochem), 20 μM DAPH (Calbiochem); 2) Guanylate cyclase inhibitor; 10 μM LY-83583 (Calbiochem); 3) Casein kinase I inhibitor; 20 μM CKI-7 (Seikagaku Corp.); and 4) Protein kinase G (PKG) and PKA inhibitor; 5.0 μM H89.

The subject of data set [3] is aggrecanase cleavage of aggrecan (230K fragment). Briefly: Aggrecanase neoepitope in IL-1-stimulated chondrocytes, BC-3 antibody immunoblot. It is filed as cell-based, bovine. How it is done:
as §1, §2
A general note: A western blot detects proteins with antibodies after separation by electrophoresis.

Data set [4] relates to primary bovine articular chondrocytes. Put plainly: In vitro MTT cytotoxicity assay. It is filed as cell-based. The conditions noted are these: 1 μM; 20 hours incubation + 4 hours MTT. The text has this: The evaluation of cytotoxicity of compounds by in vitro methods allows one to establish criteria which allow rank ordering among compounds. These methods assess cell permeability, release of cytosolic enzymes, and oxidative potential of cells. The use of tetrazolium dyes to assess cytotoxicity has been established in the area of oncology, where such assays were developed to assess the cytotoxic potential of various chemotherapeutic agents. We have adapted the use of the MTT (3-(4,5-dimethylthiazol-2-yl)-2,5-diphenyl tetrazolium bromide) in an assay using primary bovine articular chondrocytes. The procedure for this assay is given below.
Chondrocytes are isolated from bovine calf radio-carpal joints as described in Example 1. Cells are plated in two 96-well plates at 4×10^4 cells per well, in DMEM/F12 media supplemented with 10% fetal bovine serum. The cultures are refed on days 4, 7, 11, 14, 18, 21 and 24. On day 27, the cells are rinsed with PBS, and incubated for 20 hours with 0.2 ml/well of serum-free DMEM/F12 plus 0.1% DMSO, and the test compounds. Genistein (50 μM), Herbimycin (10 μM) and Staurosporine (1 μM) were each used as test compounds. […] The 96-well plate is then read in a microplate reader at 560 nm, with subtraction of absorbance at 750 nm to account for cell debris.
On the technique in general: Tetrazolium dyes change colour on reduction, which living cells bring about.

Turning to `NC1=NC(=O)/C(=C2\CCNC(=O)c3[nH]c(Br)cc32)N1` [Z-hymenialdisine], the “inhibition of cartilage degradation in the bovine cartilage explant assay” value in the data set with bovine cartilage explant is “inhibit cartilage degradation”.

As for `COc1ccc(S(=O)(=O)N(CCO)c2ccccc2CN(C)C/C=C/c2ccc(Cl)cc2)cc1` [KN-93], the “inhibitory effect on IL-1 induced release of 35S-labelled proteoglycans” value (from here on “inhibitory effect”) in data set [1] (5 μM) was “no effect”. In addition, the “effect on IL-1-induced prostromelysin levels” value with prostromelysin protein (5.0 μM) was “no effect”. In data set [2] (5.0 μM), the “band pattern (ratio of intact aggrecan to 230K fragment), 2-B-6” value is given as “pattern similar to IL-1 alone”. The “BC-3 immunoreactive band at approximately 230K (aggrecanase-mediated fragment)” value (shortened to “BC-3 immunoreactive band”) in data set [3] (5.0 μM) is reported as “absence”.

Consider CKI-7, for which the “percent inhibition of IL-1 induced 35S release” value (from here on “percent inhibition”) in data set [1] (20 μM) is on record as “no inhibition”. Also, the “effect on IL-1α-induced prostromelysin protein levels” value in the data set on prostromelysin protein (20 μM) is reported as “no effect”.

`COc1cc2ncc(-c3ccccc3)nc2cc1OC` [Tyrphostin AG 1296]: in data set [1] (1 μM), the “percent inhibition” value is listed as “no inhibition”. In the data set on prostromelysin protein (1 μM), the “effect on IL-1α-induced prostromelysin protein levels” value was “no effect”. In addition, the “inhibition of IL-1-induced aggrecan degradation, 2-B-6” value in data set [2] (1 μM, repeat experiment) is on record as “no inhibitory effect”.

Take `O=C1C(Nc2ccccc2)=CC(=O)c2ncccc21` [LY-83583]: the “effect on IL-1α-induced prostromelysin protein levels” value in the data set on prostromelysin protein (10 μM) is given as “no effect”.

For the molecule `COc1ccc2c(c[n+](C)c3c4cc5c(cc4ccc23)OCO5)c1OC` [Chelerythrine], the “inhibitory effect” value in data set [1] (1 μM) is on record as “no effect”. Also, the “band pattern (ratio of intact aggrecan to 230K fragment), 2-B-6” value in data set [2] (1.0 μM) was “pattern similar to IL-1 alone”.

As to `O=S(=O)(NCCNC/C=C/c1ccc(Br)cc1)c1cccc2cnccc12` [H89], in data set [1] (0.5 μM), the “inhibitory effect” value is given as “no effect” and the “percent inhibition” value is recorded as “Little or no inhibition”. The “effect on IL-1-induced prostromelysin levels” value in the data set with prostromelysin protein (0.5 μM) is “no effect”. In addition, the “band pattern (ratio of intact aggrecan to 230K fragment), 2-B-6” value in data set [2] (0.5 μM) is on record as “pattern similar to IL-1 alone”. In addition, in data set [3] (0.5 μM), the “BC-3 immunoreactive band” value is given as “detected”.

Regarding Calphostin C, the “inhibitory effect” value in data set [1] (0.5 μM) is recorded as “no effect”. Further, the “effect on IL-1-induced prostromelysin levels” value with prostromelysin protein (0.5 μM) is “no effect”. Also, the “band pattern (ratio of intact aggrecan to 230K fragment), 2-B-6” value in data set [2] (0.5 μM) was “pattern similar to IL-1 alone”. Further, the “BC-3 immunoreactive band” value in data set [3] (0.5 μM) is “detected”.

For the molecule `CN[C@@H]1C[C@H]2O[C@@](C)([C@@H]1OC)n1c3ccccc3c3c4c(c5c6ccccc6n2c5c31)C(=O)NC4` [Staurosporine], the “cytotoxicity, reduction of MTT dye” value in data set [4] is “reduction of MTT consistent with cytotoxicity”.
